What all share (assay): relative viability (nuclei count vs DMSO), 5 days (fraction); higher = more cells survive
Compound in assay [1]: C1/C(=C\C2=CC=CS2)/C(=O)/C(=C/C3=CC=CS3)/C1 + Cc1cc(Nc2cc(N3CCN(C)CC3)nc(Sc3ccc(NC(=O)C4CC4)cc3)n2)n[nH]1 [Tozasertib] (partner 0.1 µM)
In short, it runs like this: (§1)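 Medians of duplicate plates are given as relative viability. That measure is the nuclei count in treated wells divided by the count in vehicle wells. Counts were taken on 4× images of lung cancer cell lines in 1536-well plates, 5 days after pin-tool dosing the day after seeding with one drug alone or a fixed anchor-drug dose plus five library-drug doses (not always all listed) in √10 steps.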

Compound in assay [2]: C1/C(=C\C2=CC=CS2)/C(=O)/C(=C/C3=CC=CS3)/C1 + CC1(C)CCC(c2ccc(Cl)cc2)=C(CN2CCN(c3ccc(C(=O)NS(=O)(=O)c4ccc(N[C@H](CCN5CCOCC5)CSc5ccccc5)c(S(=O)(=O)C(F)(F)F)c4)cc3)CC2)C1 [Navitoclax] (partner 0.5 µM)
In short, it runs like this: as §1

Compound in assay [3]: C1/C(=C\C2=CC=CS2)/C(=O)/C(=C/C3=CC=CS3)/C1 + N=C(N)NC(=N)NCCc1ccccc1 [Phenformin] (partner 250 µM)
The gist of the method: as §1

Compound in the assay “TPCA-1 + Pictilisib”: C1=CC(=CC=C1C2=CC(=C(S2)NC(=O)N)C(=O)N)F [TPCA-1] + CS(=O)(=O)N1CCN(Cc2cc3nc(-c4cccc5[nH]ncc45)nc(N4CCOCC4)c3s2)CC1 [Pictilisib] (partner 1 µM)
In short, it runs like this: as §1

As to UMC-11, the relative viability in assay [1] (first compound 0.2 µM) came to 0.204; in assay [1] (first compound 0.6325 µM), 0.192; in assay [1] (first compound 2 µM), 0.212; in assay [1] (first compound 6.325 µM) it was 0.202; in assay [1] (first compound 20 µM), 0.205; in assay [2] (first compound 0.2 µM), 0.302. For the same cell line, the relative viability in assay [2] (first compound 0.6325 µM) came out at 0.362; in assay [2] (first compound 2 µM), 0.307; in assay [2] (first compound 20 µM), 0.307; in assay [3] (first compound 0.2 µM), 0.32; in assay [3] (first compound 0.6325 µM), 0.365; in assay [3] (first compound 20 µM), 0.324. Moreover, the relative viability with TPCA-1 + Pictilisib (first compound 0.04 µM) is 0.781; in the assay with TPCA-1 + Pictilisib (first compound 0.1265 µM), 0.685; with TPCA-1 + Pictilisib (first compound 0.4 µM) it was 0.881; with TPCA-1 + Pictilisib (first compound 1.265 µM), 0.735; in the assay with TPCA-1 + Pictilisib (first compound 4 µM), 0.127.

For the origin of these results see the supplement of paper PMC10307832.
